Reference: ChEMBL document CHEMBL3885881, “DrugMatrix”

Organism: Rattus norvegicus
Test: DrugMatrix - Regimen: Daily Repeat
Assay type: toxicity, organism-based, Sprague-Dawley
Parameters: regimen Daily Repeat, gender Male, age 6-8 weeks
Settings: in vivo, po, route oral GAVAGE, vehicle .5 % CMC; for ABSOLUTE BASOPHIL / ABSOLUTE EOSINOPHIL / ABSOLUTE LYMPHOCYTE / ABSOLUTE MONOCYTE / ABSOLUTE SEGMENTED NEUTROPHIL / BASOPHIL / EOSINOPHIL / ERYTHROCYTE COUNT / HEMATOCRIT / HEMOGLOBIN / LEUKOCYTE COUNT / LYMPHOCYTE / MEAN CORPUSCULAR HEMOGLOBIN / MEAN CORPUSCULAR HEMOGLOBIN CONCENTRATION / MEAN CORPUSCULAR VOLUME / MONOCYTE / NEUTROPHIL / NUCLEATED RED BLOOD CELLS / PLATELET COUNT: tissue Blood; for ALANINE AMINOTRANSFERASE / ALBUMIN / ALKALINE PHOSPHATASE / ASPARTATE AMINOTRANSFERASE / BLOOD UREA NITROGEN / CARBON DIOXIDE / CHLORIDE / CHOLESTEROL / CREATINE PHOSPHOKINASE / CREATININE / GLUCOSE / LACTATE DEHYDROGENASE / LIPASE / PHOSPHORUS / POTASSIUM / SODIUM / TOTAL BILIRUBIN / TOTAL PROTEIN / URIC ACID: tissue Plasma
[1] = 0 mg/kg, 72 h, dose level Control, time 3 day
[2] = 0 mg/kg, 120 h, dose level Control, time 5 day
[3] = 30 mg/kg, 72 h, dose level Low, time 3 day
[4] = 30 mg/kg, 120 h, dose level Low, time 5 day

COc1ccc(/C=C/C(=O)Nc2ccccc2C(=O)O)cc1OC
ABSOLUTE BASOPHIL [1]: 0 CELLS/uL
ABSOLUTE EOSINOPHIL [1]: 222.83 CELLS/uL
ABSOLUTE LYMPHOCYTE [1]: 14453 CELLS/uL
ABSOLUTE MONOCYTE [1]: 0 CELLS/uL
ABSOLUTE SEGMENTED NEUTROPHIL [1]: 1490.83 CELLS/uL
BASOPHIL [1]: 0%
EOSINOPHIL [1]: 1.33%
ERYTHROCYTE COUNT [1]: 5.76 x10E6/uL
HEMATOCRIT [1]: 36.52%
HEMOGLOBIN [1]: 13.45 G/DL
LEUKOCYTE COUNT [1]: 16.17 x10E3/uL
LYMPHOCYTE [1]: 89.33%
MEAN CORPUSCULAR HEMOGLOBIN [1]: 23.37 pg
MEAN CORPUSCULAR HEMOGLOBIN CONCENTRATION [1]: 36.85 G/DL
MEAN CORPUSCULAR VOLUME [1]: 63.47 fL
MONOCYTE [1]: 0%
NEUTROPHIL [1]: 9.33%
NUCLEATED RED BLOOD CELLS [1]: 0 /100WBC
PLATELET COUNT [1]: 1239.5 x10E3/uL
ALANINE AMINOTRANSFERASE [1]: 43.83 u/L
ALBUMIN [1]: 4.27 G/DL
ALKALINE PHOSPHATASE [1]: 398.83 u/L
ASPARTATE AMINOTRANSFERASE [1]: 81.17 u/L
BLOOD UREA NITROGEN [1]: 17.67 mg/dL
CARBON DIOXIDE [1]: 27.5 mmol/L
CHLORIDE [1]: 99.17 MEQ/L
CHOLESTEROL [1]: 74 mg/dL
CREATINE PHOSPHOKINASE [1]: 331.5 u/L
CREATININE [1]: 0.2 mg/dL
GLUCOSE [1]: 171.33 mg/dL
LACTATE DEHYDROGENASE [1]: 241.67 u/L
LIPASE [1]: 9.5 u/L
PHOSPHORUS [1]: 12.25 mg/dL
POTASSIUM [1]: 6.33 MEQ/L
SODIUM [1]: 141.28 MEQ/L
TOTAL BILIRUBIN [1]: 0.15 mg/dL
TOTAL PROTEIN [1]: 5.98 G/DL
URIC ACID [1]: 1.63 mg/dL
ABSOLUTE BASOPHIL [2]: 0 CELLS/uL
ABSOLUTE EOSINOPHIL [2]: 148.67 CELLS/uL
ABSOLUTE LYMPHOCYTE [2]: 16020.5 CELLS/uL
ABSOLUTE MONOCYTE [2]: 29.17 CELLS/uL
ABSOLUTE SEGMENTED NEUTROPHIL [2]: 1468.33 CELLS/uL
BASOPHIL [2]: 0%
EOSINOPHIL [2]: 1%
ERYTHROCYTE COUNT [2]: 5.78 x10E6/uL
HEMATOCRIT [2]: 35.77%
HEMOGLOBIN [2]: 13.4 G/DL
LEUKOCYTE COUNT [2]: 17.67 x10E3/uL
LYMPHOCYTE [2]: 90.5%
MEAN CORPUSCULAR HEMOGLOBIN [2]: 23.22 pg
MEAN CORPUSCULAR HEMOGLOBIN CONCENTRATION [2]: 37.47 G/DL
MEAN CORPUSCULAR VOLUME [2]: 61.92 fL
MONOCYTE [2]: 0.17%
NEUTROPHIL [2]: 8.33%
NUCLEATED RED BLOOD CELLS [2]: 0.17 /100WBC
PLATELET COUNT [2]: 1255.5 x10E3/uL
ALANINE AMINOTRANSFERASE [2]: 46.5 u/L
ALBUMIN [2]: 4.38 G/DL
ALKALINE PHOSPHATASE [2]: 336 u/L
ASPARTATE AMINOTRANSFERASE [2]: 76.5 u/L
BLOOD UREA NITROGEN [2]: 20 mg/dL
CARBON DIOXIDE [2]: 27.5 mmol/L
CHLORIDE [2]: 101 MEQ/L
CHOLESTEROL [2]: 71.33 mg/dL
CREATINE PHOSPHOKINASE [2]: 231.83 u/L
CREATININE [2]: 0.37 mg/dL
GLUCOSE [2]: 168.83 mg/dL
LACTATE DEHYDROGENASE [2]: 174 u/L
LIPASE [2]: 8.67 u/L
PHOSPHORUS [2]: 11.48 mg/dL
POTASSIUM [2]: 6.82 MEQ/L
SODIUM [2]: 143.8 MEQ/L
TOTAL BILIRUBIN [2]: 0.2 mg/dL
TOTAL PROTEIN [2]: 5.98 G/DL
URIC ACID [2]: 1.83 mg/dL
ABSOLUTE BASOPHIL [3]: 0 CELLS/uL
ABSOLUTE EOSINOPHIL [3]: 217.33 CELLS/uL
ABSOLUTE LYMPHOCYTE [3]: 12060 CELLS/uL
ABSOLUTE MONOCYTE [3]: 0 CELLS/uL
ABSOLUTE SEGMENTED NEUTROPHIL [3]: 1122.67 CELLS/uL
BASOPHIL [3]: 0%
EOSINOPHIL [3]: 1.67%
ERYTHROCYTE COUNT [3]: 5.52 x10E6/uL
HEMATOCRIT [3]: 34.6%
HEMOGLOBIN [3]: 13.1 G/DL
LEUKOCYTE COUNT [3]: 13.4 x10E3/uL
LYMPHOCYTE [3]: 90%
MEAN CORPUSCULAR HEMOGLOBIN [3]: 23.77 pg
MEAN CORPUSCULAR HEMOGLOBIN CONCENTRATION [3]: 37.9 G/DL
MEAN CORPUSCULAR VOLUME [3]: 62.73 fL
MONOCYTE [3]: 0%
NEUTROPHIL [3]: 8.33%
NUCLEATED RED BLOOD CELLS [3]: 0 /100WBC
PLATELET COUNT [3]: 1155.33 x10E3/uL
ALANINE AMINOTRANSFERASE [3]: 48.67 u/L
ALBUMIN [3]: 4.13 G/DL
ALKALINE PHOSPHATASE [3]: 344.33 u/L
ASPARTATE AMINOTRANSFERASE [3]: 77 u/L
BLOOD UREA NITROGEN [3]: 14.67 mg/dL
CARBON DIOXIDE [3]: 23.67 mmol/L
CHLORIDE [3]: 103.67 MEQ/L
CHOLESTEROL [3]: 71 mg/dL
CREATINE PHOSPHOKINASE [3]: 180 u/L
CREATININE [3]: 0.19 mg/dL
GLUCOSE [3]: 159.67 mg/dL
LACTATE DEHYDROGENASE [3]: 96.67 u/L
LIPASE [3]: 8 u/L
PHOSPHORUS [3]: 12.47 mg/dL
POTASSIUM [3]: 5.88 MEQ/L
SODIUM [3]: 144.63 MEQ/L
TOTAL BILIRUBIN [3]: 0.17 mg/dL
TOTAL PROTEIN [3]: 5.67 G/DL
URIC ACID [3]: 1.47 mg/dL
ABSOLUTE BASOPHIL [4]: 0 CELLS/uL
ABSOLUTE EOSINOPHIL [4]: 278.67 CELLS/uL
ABSOLUTE LYMPHOCYTE [4]: 14764.67 CELLS/uL
ABSOLUTE MONOCYTE [4]: 0 CELLS/uL
ABSOLUTE SEGMENTED NEUTROPHIL [4]: 1590 CELLS/uL
BASOPHIL [4]: 0%
EOSINOPHIL [4]: 1.67%
ERYTHROCYTE COUNT [4]: 5.36 x10E6/uL
HEMATOCRIT [4]: 34.2%
HEMOGLOBIN [4]: 13.03 G/DL
LEUKOCYTE COUNT [4]: 16.63 x10E3/uL
LYMPHOCYTE [4]: 88.67%
MEAN CORPUSCULAR HEMOGLOBIN [4]: 24.4 pg
MEAN CORPUSCULAR HEMOGLOBIN CONCENTRATION [4]: 38.1 G/DL
MEAN CORPUSCULAR VOLUME [4]: 63.97 fL
MONOCYTE [4]: 0%
NEUTROPHIL [4]: 9.67%
NUCLEATED RED BLOOD CELLS [4]: 0.33 /100WBC
PLATELET COUNT [4]: 1260.33 x10E3/uL
ALANINE AMINOTRANSFERASE [4]: 59 u/L
ALBUMIN [4]: 4.5 G/DL
ALKALINE PHOSPHATASE [4]: 404 u/L
ASPARTATE AMINOTRANSFERASE [4]: 84.33 u/L
BLOOD UREA NITROGEN [4]: 18.33 mg/dL
CARBON DIOXIDE [4]: 25.33 mmol/L
CHLORIDE [4]: 103 MEQ/L
CHOLESTEROL [4]: 75.67 mg/dL
CREATINE PHOSPHOKINASE [4]: 221 u/L
CREATININE [4]: 0.18 mg/dL
GLUCOSE [4]: 161.67 mg/dL
LACTATE DEHYDROGENASE [4]: 269 u/L
LIPASE [4]: 9 u/L
PHOSPHORUS [4]: 12.57 mg/dL
POTASSIUM [4]: 6.47 MEQ/L
SODIUM [4]: 145.07 MEQ/L
TOTAL BILIRUBIN [4]: 0.1 mg/dL
TOTAL PROTEIN [4]: 6.03 G/DL
URIC ACID [4]: 1.6 mg/dL
